Assay results taken from patent US20250108038A1 (priority 2023, published 2025).
Where two headings read alike, the source gives them in different places.

Assays:
[1] = molecular target: T1, OATP1B3 (Homo sapiens, UniProt Q9NPD5); experiment: Uptake transporter inhibition assay, OATP1B3 (CCK-8)
T1 sequence (Q9NPD5 1-702): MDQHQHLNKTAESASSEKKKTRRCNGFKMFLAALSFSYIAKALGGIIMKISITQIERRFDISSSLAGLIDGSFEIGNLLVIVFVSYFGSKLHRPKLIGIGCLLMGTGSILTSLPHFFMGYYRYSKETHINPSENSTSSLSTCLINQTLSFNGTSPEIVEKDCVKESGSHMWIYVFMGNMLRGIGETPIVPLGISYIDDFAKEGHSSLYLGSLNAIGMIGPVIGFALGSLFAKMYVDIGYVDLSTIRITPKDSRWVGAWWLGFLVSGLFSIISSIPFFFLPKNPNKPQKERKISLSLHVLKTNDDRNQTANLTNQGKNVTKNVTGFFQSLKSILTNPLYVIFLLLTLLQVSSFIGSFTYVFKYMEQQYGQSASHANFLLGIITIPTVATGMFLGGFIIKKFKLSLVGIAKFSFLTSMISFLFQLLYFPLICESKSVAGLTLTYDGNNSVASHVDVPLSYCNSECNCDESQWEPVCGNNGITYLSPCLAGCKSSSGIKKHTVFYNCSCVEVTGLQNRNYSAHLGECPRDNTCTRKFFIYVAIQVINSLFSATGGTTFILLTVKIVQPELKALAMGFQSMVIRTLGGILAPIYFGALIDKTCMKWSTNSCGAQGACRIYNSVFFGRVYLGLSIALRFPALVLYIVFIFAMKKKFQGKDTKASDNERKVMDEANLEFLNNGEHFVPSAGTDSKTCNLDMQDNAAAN
Method: (§1) Uptake experiments were performed using HEK293 cells stably expressing the respective uptake transporters. The assays were conducted according to the actual SOLVO uptake transporter assay protocols (PR-ASY-UPT-General Protocol for Uptake Transporter Inhibition Assays).
(§2) Cells were cultured at 37° C. in a humidified atmosphere containing 5% CO2 and were plated onto standard 96-well tissue culture plates.
(§3) Before the experiment, the medium was removed, and the cells were washed twice with 100 μL of pre-warmed (37° C.) assay buffer listed in Table 15. The cells were pre-incubated at 37° C. for 30 minutes in assay buffer containing the test article at appropriate concentrations (Table 16), appropriate solvents for solvent controls and the reference inhibitor for reference inhibitor wells. After the pre-incubation step solutions were removed. Uptake experiments were performed at 37° C. in 50 μL of assay buffer containing the probe substrate and the test article or solvent and controls.
(§4) After the experiment, cells were washed twice with 100 μL of appropriate cold buffer and lysed with 150 μL scintillation cocktail. Radiolabeled probe substrate transport was determined by liquid scintillation counting.
(§5) Uptake of the probe substrate in control cells provided background activity values for all data points.

[2] = molecular target: T2, OAT1 (Homo sapiens, UniProt Q4U2R8); experiment: Uptake transporter inhibition assay, OAT1 (tenofovir)
T2 sequence (Q4U2R8 1-563): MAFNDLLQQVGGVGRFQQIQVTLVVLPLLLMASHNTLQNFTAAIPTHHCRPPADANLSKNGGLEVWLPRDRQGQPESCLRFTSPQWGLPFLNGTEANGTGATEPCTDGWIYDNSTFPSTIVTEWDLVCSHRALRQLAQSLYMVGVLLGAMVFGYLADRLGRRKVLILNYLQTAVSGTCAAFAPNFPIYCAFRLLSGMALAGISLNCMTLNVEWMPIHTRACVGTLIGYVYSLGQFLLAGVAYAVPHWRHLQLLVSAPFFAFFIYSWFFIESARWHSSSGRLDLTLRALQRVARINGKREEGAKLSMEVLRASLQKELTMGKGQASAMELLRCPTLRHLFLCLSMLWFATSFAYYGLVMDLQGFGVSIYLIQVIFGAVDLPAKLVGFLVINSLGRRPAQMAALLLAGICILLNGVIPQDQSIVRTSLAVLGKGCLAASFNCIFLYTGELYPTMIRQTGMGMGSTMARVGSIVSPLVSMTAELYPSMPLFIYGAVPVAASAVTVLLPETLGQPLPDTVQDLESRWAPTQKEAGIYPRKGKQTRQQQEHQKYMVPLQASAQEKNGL
Method: as §1, §2, §3, §4, §5

[3] = molecular target: BSEP (Homo sapiens, UniProt O95342); experiment: Vesicular transport inhibition assay, BSEP (taurocholate)
Method: Vesicular transport assays were performed with inside-out membrane vesicles prepared from cells overexpressing human ABC (efflux) transporters. The transporters were expressed by SOLVO Biotechnology in mammalian (HEK293) cells. The mammalian cells were stably transfected with the ABC transporter of interest. The assays were conducted according to the actual SOLVO VT assay protocols (PR-ASY-VT-General Protocol for Vesicular Transport Inhibition Assays).
The membrane vesicle suspension was mixed with the ice-cold transport buffer, then the probe substrate solution was added. […] (for BCRP and MDR1). […] Reactions were quenched by the addition of 200 μL of ice-cold washing buffer and immediate filtration via glass fiber filters mounted to a 96-well plate (filter plate). The filters were washed (5×200 μL of ice-cold washing buffer), dried and the amount of substrate inside the filtered vesicles was determined by liquid scintillation counting.
Incubation with AMP provided background activity values for all data points.

[4] = test system: orexin/tTA; Tet-O diphtheria toxin A mice (DTA mice); type: in vivo, mouse; details: for latency to REM: vehicle about 100 min
[5] = 0.14 μM nominal, 0.09 μM NSB corrected, follow-up assay
[6] = 1.24 μM nominal, 0.86 μM NSB corrected, follow-up assay
[7] = 10.00 μM nominal, 6.60 μM NSB corrected
[8] = 11.11 μM nominal, 7.89 μM NSB corrected, follow-up assay
[9] = 33.33 μM nominal, 24.33 μM NSB corrected, follow-up assay
[10] = 100.00 μM nominal, 77.00 μM NSB corrected
[11] = 100.00 μM nominal, 100.00 μM NSB corrected, follow-up assay
[12] = […] nominal, 1.89 μM NSB corrected, follow-up assay
[13] = 0.14 μM nominal, follow-up assay
[14] = 1.24 μM nominal, follow-up assay
[15] = 11.11 μM nominal, follow-up assay
[16] = 33.33 μM nominal, follow-up assay
[17] = 100.00 μM nominal, follow-up assay
[18] = last 6 h of the dark period (ZT19-ZT24)

Sequence of BSEP (O95342 whole entry): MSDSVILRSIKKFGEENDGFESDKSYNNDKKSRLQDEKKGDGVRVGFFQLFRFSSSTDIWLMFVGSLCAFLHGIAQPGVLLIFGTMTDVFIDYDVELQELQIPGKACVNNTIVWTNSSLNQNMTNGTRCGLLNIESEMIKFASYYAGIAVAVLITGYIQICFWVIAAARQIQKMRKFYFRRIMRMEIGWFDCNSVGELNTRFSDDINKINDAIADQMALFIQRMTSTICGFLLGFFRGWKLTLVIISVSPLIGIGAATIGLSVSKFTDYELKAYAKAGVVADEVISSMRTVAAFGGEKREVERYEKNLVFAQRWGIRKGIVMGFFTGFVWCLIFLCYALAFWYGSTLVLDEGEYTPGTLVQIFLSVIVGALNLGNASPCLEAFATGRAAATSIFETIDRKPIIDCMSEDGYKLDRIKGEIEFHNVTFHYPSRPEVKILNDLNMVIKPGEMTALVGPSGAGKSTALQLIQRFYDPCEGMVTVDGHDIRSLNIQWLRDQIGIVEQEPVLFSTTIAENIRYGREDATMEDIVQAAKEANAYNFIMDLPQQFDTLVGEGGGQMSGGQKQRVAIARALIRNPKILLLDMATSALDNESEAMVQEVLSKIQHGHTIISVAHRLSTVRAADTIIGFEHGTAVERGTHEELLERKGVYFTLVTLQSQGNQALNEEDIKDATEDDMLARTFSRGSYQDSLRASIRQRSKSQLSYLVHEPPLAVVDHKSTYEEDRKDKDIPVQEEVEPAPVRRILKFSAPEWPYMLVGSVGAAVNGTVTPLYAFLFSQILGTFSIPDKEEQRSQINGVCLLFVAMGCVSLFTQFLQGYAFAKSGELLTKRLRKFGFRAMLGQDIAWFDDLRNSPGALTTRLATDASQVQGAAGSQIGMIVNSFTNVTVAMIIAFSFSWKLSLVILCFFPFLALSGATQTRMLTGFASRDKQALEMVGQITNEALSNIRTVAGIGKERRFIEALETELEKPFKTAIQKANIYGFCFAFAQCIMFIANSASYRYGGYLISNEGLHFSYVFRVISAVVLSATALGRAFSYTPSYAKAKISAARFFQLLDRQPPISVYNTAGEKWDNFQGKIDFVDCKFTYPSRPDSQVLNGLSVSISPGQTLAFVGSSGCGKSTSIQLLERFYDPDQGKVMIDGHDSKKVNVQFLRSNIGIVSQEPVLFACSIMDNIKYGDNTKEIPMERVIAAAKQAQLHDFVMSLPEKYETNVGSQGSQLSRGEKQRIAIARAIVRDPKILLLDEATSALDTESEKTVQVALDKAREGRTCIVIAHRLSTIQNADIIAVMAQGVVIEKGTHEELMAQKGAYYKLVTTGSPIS

## Clc1ccc(C2(OCC3OCCO3)c3ccccc3C3=NCCN32)cc1 (centres unmarked) [Compound I-19]
[1]; [5]
  Relative inhibition: 1%
  Relative transporter specific accumulation: 99.35 ± 3.01 % of control
  Transporter specific accumulation: 1,167.00 ± 32.35 cpm
[1]; [6]
  Relative inhibition: 8%
  Relative transporter specific accumulation: 91.63 ± 3.53 % of control
  Transporter specific accumulation: 1,076.33 ± 39.37 cpm
[1]; [7]
  Relative inhibition: 7%
  Relative transporter specific accumulation: 93.13 ± 0.99 % of control
  Transporter specific accumulation: 1,953.33 ± 8.60 cpm
[1]; [8]
  Relative inhibition: 20%
  Relative transporter specific accumulation: 80.11 ± 4.16 % of control
  Transporter specific accumulation: 941.00 ± 47.56 cpm
[1]; [9]
  Relative inhibition: 23%
  Relative transporter specific accumulation: 77.21 ± 2.52 % of control
  Transporter specific accumulation: 907.00 ± 27.52 cpm
[1]; [10]
  Relative inhibition: 50%
  Relative transporter specific accumulation: 50.40 ± 2.21 % of control
  Transporter specific accumulation: 1,057.00 ± 45.14 cpm
[1]; [11]
  Relative inhibition: 61%
  Relative transporter specific accumulation: 39.13 ± 2.03 % of control
  Transporter specific accumulation: 459.67 ± 23.17 cpm
[1]; 2-concentration assay, up to 100 μM (Compound A up to 30 μM)
  maximum inhibition of OATP1B3-mediated CCK-8 accumulation: 50%
[1]; OATP1B3, HEK293 cells, CCK-8 (1 μM), NIO: no inhibition observed
  Maximum % inhibition: 61%
[1]; [12]
  Relative inhibition: 4%
  Relative transporter specific accumulation: 96.17 ± 1.42 % of control
  Transporter specific accumulation: 1,129.67 ± 9.53 cpm
[1]; follow-up assay
  maximum inhibition of OATP1B3-mediated CCK-8 accumulation: 61%
[1]; follow-up assay, NSB-corrected concentrations
  IC50: 82.8 µM
[2]; [7]
  Relative inhibition: 11%
  Relative transporter specific accumulation: 89.39 ± 1.16 % of control
  Transporter specific accumulation: 5,462.33 ± 30.98 cpm
[2]; [10]
  Relative inhibition: 33%
  Relative transporter specific accumulation: 66.61 ± 1.15 % of control
  Transporter specific accumulation: 4,070.33 ± 51.74 cpm
[2]; OAT1, HEK293 cells, tenofovir (5 μM), NIO: no inhibition observed
  Maximum % inhibition: 33%
[3]; [13]
  ATP-dependent transport: 5,664.33 ± 228.93 cpm
  Relative ATP-dependent transport: 114.35 ± 6.07 % of control
  Relative inhibition: −14%
[3]; [14]
  ATP-dependent transport: 4,919.33 ± 50.10 cpm
  Relative ATP-dependent transport: 99.31 ± 4.70 % of control
  Relative inhibition: 1%
[3]; 10.00 μM nominal
  ATP-dependent transport: 4,410.33 ± 297.54 cpm
  Relative ATP-dependent transport: 90.09 ± 6.36 % of control
  Relative inhibition: 10%
[3]; [15]
  ATP-dependent transport: 4,442.00 ± 98.02 cpm
  Relative ATP-dependent transport: 89.68 ± 4.59 % of control
  Relative inhibition: 10%
[3]; [16]
  ATP-dependent transport: 3,105.00 ± 99.98 cpm
  Relative ATP-dependent transport: 62.69 ± 3.53 % of control
  Relative inhibition: 37%
[3]; 100.00 μM nominal
  ATP-dependent transport: 1,103.00 ± 205.45 cpm
  Relative ATP-dependent transport: 22.53 ± 4.22 % of control
  Relative inhibition: 77%
[3]; [17]
  ATP-dependent transport: 1,333.33 ± 146.13 cpm
  Relative ATP-dependent transport: 26.92 ± 3.20 % of control
  Relative inhibition: 73%
[3]; 2-concentration assay, up to 100 μM (Compound A up to 35 μM)
  maximum inhibition of BSEP-mediated taurocholate accumulation: 77%
[3]; BSEP, inside-out membrane vesicles, TC (0.2 μM), NIO: No inhibition observed
  Maximum % inhibition: 73%
[3]; follow-up assay
  maximum inhibition of BSEP-mediated taurocholate accumulation: 73%
[3]; follow-up assay, bottom constrained to 0
  IC50: 45.3 µM
[4]; 6 h after dosing at ZT12
  body temperature (Tb): No significant effects
  locomotor activity (LMA): No significant effects
  total W or NREM time: No significant effects on total W or NREM were observed
[4]; 6 h after dosing at ZT12, Compound I-19 0.3, 1, 3 mg/kg i.p., Compound I-4 0.3, 1, 3 mg/kg p.o., Des 5 mg/kg p.o.
  cataplexy (C) time: Total C time significantly decreased following all three concentrations
[4]; 6 h after dosing at ZT12, same doses
  REM time: REM time significantly decreased following Compound I-19 at the two highest doses (1 and 3 mg/kg)
[4]; Compound I-19 1 mg/kg i.p.
  REM:NR ratio: ~0.2
  latency to REM: ~275 min
[4]; Compound I-19 3 mg/kg i.p.
  REM:NR ratio: ~0.1
  latency to REM: ~325 min
[4]; [18]
  cataplexy (C), hourly, cumulative and total time: significantly less following the high concentration of Compound I-19 (3 mg/kg)
  time in W, NREM or REM: not different from Veh
